Measured values: patent US7091202B2, “4-arylspirocycloalkyl-2-aminopyrimidine carboxamide KCNQ potassium channel modulators” (Bristol-Myers Squibb Company, priority 2004, dated 2006)

Target: T1, hQ23 (HEK-293 cell line stably transfected with one of the members of the KCNQ family) (Homo sapiens, UniProt O43525+O43526)
T1 construct: expressed in transfected cells; host or cells: HEK-293, stably transfected
Assay: Thallium flux assay for KCNQ channel blockers (FLIPR, BTC dye)
Type: cell-based
Conditions: Table 2; thallium flux, HEK-293
Description: Thallium Flux Assay for KCNQ channel blockers. Approximately 20,000 cells/well of an HEK-293 cell line stably transfected with one of the members of the KCNQ family were plated into clear-bottom, black-walled, poly-D-lysine coated, 384 well assay plates in 20 μl/well of low chloride plating medium. Low chloride plating medium was composed of the following: sodium gluconate, 109 mM; potassium gluconate, 5.4 mM; hemi-calcium gluconate, 3.6 mM; magnesium sulfate, 0.8 mM; sodium bicarbonate, 26.2 mM; sodium phosphate monobasic, 1.2 mM; glutamine, 2 mM; glucose, 5 mM; HEPES (pH 7.3) 10 mM, 10× concentration of vitamins (Gibco/LifeTechnologies catalog #11120-052) and 1× concentration of amino acids (Gibco/LifeTechnologies catalog #11130-051).
Following overnight incubation in a 5% CO2 incubator at 37° C., the cells in the plates were loaded with 20 μl/well of a dye loading solution containing the acetomethoxy ester of the thallium-sensitive fluorescent dye BTC, BTC-AM (2 μM) and pluronic acid (0.02% w/v) in chloride free assay buffer. Chloride free assay buffer was composed of the following: sodium gluconate, 140 mM; potassium gluconate, 2.5 mM; hemi-calcium gluconate, 6 mM; hemi-magnesium gluconate, 2 mM; glucose, 5 mM; HEPES (pH 7.3), 10 mM.
Following incubation in the dye loading solution for from 45–90 min at room temperature, the dye loading solution was removed by aspiration and replaced with 40 μl/well of chloride free assay buffer.
Prior to addition to cell plates, test compound and standard compounds were dissolved in DMSO to 3 mM concentration. Compounds were then diluted from the 3 mM stock to 100-fold over the final assay concentration in DMSO. Finally, compounds in DMSO were diluted from 100-fold over the final assay concentration to 5-fold over the final assay concentration in chloride free assay buffer.
Ten μl/well of compounds at 5-fold over the final assay concentration were then added to the cell plates. This represents a 1:5 dilution, yielding the final test concentration. The wells used for test compounds were A1–P20. Wells A21–P22 contained a standard ‘blocker’ and a fully efficacious concentration (positive control). Wells A23–P24 contained chloride free assay buffer containing 1% DMSO (negative control).
Following addition of test compounds, the plates were loaded onto the Molecular Devices FLIPR. The 488 nm line of the argon laser was used to excite the BTC and the emission filter was a 540(+/−30) nm. Images were collected at 1 Hz. Ten seconds of baseline were collected and then the FLIPR was used to add 13 μl/well of a stimulus buffer composed of Tl2SO4, 25 mM; sodium gluconate, 30 mM; potassium sulfate, 50 mM; hemi-calcium gluconate, 6 mM; hemi-magnesium gluconate, 2 mM; glucose, 5 mM; HEPES (pH 7.3), 10 mM in chloride free assay buffer. Images were collected for an additional 60 seconds.
For data analysis, the amplitude of the average of the negative controls was subtracted from all wells. The amplitudes of the test compounds were then compared to the value of four standard deviations of the negative control wells. The lowest concentration of a test compound sufficient to generate a signal amplitude greater than or equal to four standard deviations from the amplitude of the negative controls was defined as the minimal active concentration.
For generating IC50 values, compounds were serially diluted in 1:3 volume increments to produce a 10 point concentration series. IC50 values were calculated by fitting the resulting amplitudes to a single-site logistic equation. IC50 was defined as the concentration of test compound required to yield 50% of the response of the positive control.

T1 sequence (O43526 whole entry): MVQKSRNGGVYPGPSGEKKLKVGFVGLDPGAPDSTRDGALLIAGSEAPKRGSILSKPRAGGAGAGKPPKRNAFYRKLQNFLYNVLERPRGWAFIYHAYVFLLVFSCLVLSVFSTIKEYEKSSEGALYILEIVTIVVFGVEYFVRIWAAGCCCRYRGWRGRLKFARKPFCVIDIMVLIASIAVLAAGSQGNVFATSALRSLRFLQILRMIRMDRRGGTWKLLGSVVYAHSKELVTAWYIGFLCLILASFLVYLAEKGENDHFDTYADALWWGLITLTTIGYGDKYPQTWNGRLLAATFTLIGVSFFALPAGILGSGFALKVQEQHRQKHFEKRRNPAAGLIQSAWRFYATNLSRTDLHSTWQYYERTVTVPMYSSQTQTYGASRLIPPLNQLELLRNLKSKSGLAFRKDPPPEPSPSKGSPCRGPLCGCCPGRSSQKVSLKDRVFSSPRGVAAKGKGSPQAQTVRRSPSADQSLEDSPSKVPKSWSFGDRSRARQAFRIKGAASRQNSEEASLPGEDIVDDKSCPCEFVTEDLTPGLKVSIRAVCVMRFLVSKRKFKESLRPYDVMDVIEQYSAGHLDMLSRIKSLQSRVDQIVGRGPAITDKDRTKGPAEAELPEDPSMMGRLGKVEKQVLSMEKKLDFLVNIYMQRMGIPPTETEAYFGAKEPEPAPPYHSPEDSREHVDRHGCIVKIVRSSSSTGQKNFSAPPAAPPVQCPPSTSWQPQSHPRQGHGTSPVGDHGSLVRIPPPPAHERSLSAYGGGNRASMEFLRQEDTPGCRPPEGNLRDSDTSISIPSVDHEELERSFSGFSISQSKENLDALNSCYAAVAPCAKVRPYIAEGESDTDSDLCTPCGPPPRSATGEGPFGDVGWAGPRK
T1 sequence (O43525 whole entry): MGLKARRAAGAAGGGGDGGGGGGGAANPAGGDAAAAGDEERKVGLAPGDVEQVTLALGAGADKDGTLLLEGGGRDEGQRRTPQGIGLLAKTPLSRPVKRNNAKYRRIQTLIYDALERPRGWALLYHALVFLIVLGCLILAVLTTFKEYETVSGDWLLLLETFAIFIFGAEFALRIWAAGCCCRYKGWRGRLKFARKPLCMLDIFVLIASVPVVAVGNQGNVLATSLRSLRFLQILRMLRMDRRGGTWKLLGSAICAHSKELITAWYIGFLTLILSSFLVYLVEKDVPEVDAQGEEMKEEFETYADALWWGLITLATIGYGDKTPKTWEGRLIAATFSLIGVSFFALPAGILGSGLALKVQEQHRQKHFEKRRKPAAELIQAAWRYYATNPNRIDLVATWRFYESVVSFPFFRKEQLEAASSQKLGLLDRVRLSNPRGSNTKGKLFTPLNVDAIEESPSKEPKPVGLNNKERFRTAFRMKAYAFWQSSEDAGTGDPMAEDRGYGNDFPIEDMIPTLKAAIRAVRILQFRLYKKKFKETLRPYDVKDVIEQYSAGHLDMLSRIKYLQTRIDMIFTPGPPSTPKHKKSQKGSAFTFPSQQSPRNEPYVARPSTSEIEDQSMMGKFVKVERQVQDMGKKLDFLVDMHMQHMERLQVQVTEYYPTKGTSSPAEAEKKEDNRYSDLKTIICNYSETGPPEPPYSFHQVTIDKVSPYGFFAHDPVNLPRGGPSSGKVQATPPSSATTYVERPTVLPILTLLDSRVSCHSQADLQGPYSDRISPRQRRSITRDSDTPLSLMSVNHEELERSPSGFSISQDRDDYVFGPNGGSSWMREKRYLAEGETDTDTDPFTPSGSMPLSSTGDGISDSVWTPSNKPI

EC50 [µM] | Compound
0.586 | CC1CCC(Nc2ncc(C(=O)NCc3cccc4ccccc34)c(C3(c4ccccc4)CC3)n2)CC1 (centres unmarked) [Example 36, 5-pyrimidinecarboxamide, 2-[(4-methylcyclohexyl)amino]-N-(1-naphthalenylmethyl)-4-(1-phenylcyclopropyl)-]
0.214 | CC1CCCN(c2ncc(C(=O)NCc3cccc4ccccc34)c(C3(c4ccccc4)CC3)n2)C1 (centres unmarked) [Example 37, 5-pyrimidinecarboxamide, 2-(3-methyl-1-piperidinyl)-N-(1-naphthalenylmethyl)-4-(1-phenylcyclopropyl)-]
0.381 | CC1CCN(c2ncc(C(=O)NCc3cccc4ccccc34)c(C3(c4ccccc4)CC3)n2)CC1 [Example 38, 5-pyrimidinecarboxamide, 2-(4-methyl-1-piperidinyl)-N-(1-naphthalenylmethyl)-4-(1-phenylcyclopropyl)-]
0.551 | CC1CCC(Nc2ncc(C(=O)NCc3ccc(Cl)cc3Cl)c(C3(c4ccccc4)CC3)n2)CC1 (centres unmarked) [Example 39, 5-pyrimidinecarboxamide, N-[(2,4-dichlorophenyl)methyl]-2-[(4-methylcyclohexyl)amino]-4-(1-phenylcyclopropyl)-]
0.326 | CC1CCCN(c2ncc(C(=O)NCc3ccc(Cl)cc3Cl)c(C3(c4ccccc4)CC3)n2)C1 (centres unmarked) [Example 40, 5-pyrimidinecarboxamide, N-[(2,4-dichlorophenyl)methyl]-2-(3-methyl-1-piperidinyl)-4-(1-phenylcyclopropyl)-]
0.22 | CC1CCN(c2ncc(C(=O)NCc3ccc(Cl)cc3Cl)c(C3(c4ccccc4)CC3)n2)CC1 [Example 41, 5-pyrimidinecarboxamide, N-[(2,4-dichlorophenyl)methyl]-2-(4-methyl-1-piperidinyl)-4-(1-phenylcyclopropyl)-]
0.413 | CC1CCC(Nc2ncc(C(=O)NCc3ccc(F)cc3F)c(C3(c4ccccc4)CC3)n2)CC1 (centres unmarked) [Example 42, 5-pyrimidinecarboxamide, N-[(2,4-difluorophenyl)methyl]-2-[(4-methylcyclohexyl)amino]-4-(1-phenylcyclopropyl)-]
0.919 | CC1CCN(c2ncc(C(=O)NCc3ccc(F)cc3F)c(C3(c4ccccc4)CC3)n2)CC1 [Example 43, 5-pyrimidinecarboxamide, N-[(2,4-difluorophenyl)methyl]-2-(4-methyl-1-piperidinyl)-4-(1-phenylcyclopropyl)-]
0.044 | CC1CCC(Nc2ncc(C(=O)NCc3cc(F)cc(C(F)(F)F)c3)c(C3(c4ccccc4)CC3)n2)CC1 (centres unmarked) [Example 44, 5-pyrimidinecarboxamide, N-[[3-fluoro-5-(trifluoromethyl)phenyl]methyl]-2-[(4-methylcyclohexyl)amino]-4-(1-phenylcyclopropyl)-]
0.209 | O=C(NCc1cc(F)cc(C(F)(F)F)c1)c1cnc(N2CCCC2)nc1C1(c2ccccc2)CC1 [Example 45, 5-pyrimidinecarboxamide, N-[[3-fluoro-5-(trifluoromethyl)phenyl]methyl]-4-(1-phenylcyclopropyl)-2-(1-pyrrolidinyl)-]
0.384 | CN1CCN(c2ncc(C(=O)NCc3cc(F)cc(C(F)(F)F)c3)c(C3(c4ccccc4)CC3)n2)CC1 [Example 46, 5-pyrimidinecarboxamide, N-[[3-fluoro-5-(trifluoromethyl)phenyl]methyl]-2-(4-methyl-1-piperazinyl)-4-(1-phenylcyclopropyl)-]
0.041 | CC1CCCN(c2ncc(C(=O)NCc3cc(F)cc(C(F)(F)F)c3)c(C3(c4ccccc4)CC3)n2)C1 (centres unmarked) [Example 47, 5-pyrimidinecarboxamide, N-[[3-fluoro-5-(trifluoromethyl)phenyl]methyl]-2-(3-methyl-1-piperidinyl)-4-(1-phenylcyclopropyl)-]
0.297 | CC1CCN(c2ncc(C(=O)NCc3cc(F)cc(C(F)(F)F)c3)c(C3(c4ccccc4)CC3)n2)CC1 [Example 48, 5-pyrimidinecarboxamide, N-[[3-fluoro-5-(trifluoromethyl)phenyl]methyl]-2-(4-methyl-1-piperidinyl)-4-(1-phenylcyclopropyl)-]
0.575 | CC1CCC(Nc2ncc(C(=O)NC(C)c3ccc(F)cc3)c(C3(c4ccccc4)CC3)n2)CC1 (centres unmarked) [Example 49, 5-pyrimidinecarboxamide, N-[1-(4-fluorophenyl)ethyl]-2-[(4-methylcyclohexyl)amino]-4-(1-phenylcyclopropyl)-]

Second part, the compound before the results:

Compound | EC50 [µM]
CC1CCCN(c2ncc(C(=O)N3CCc4ccccc4C3)c(C3(c4ccccc4)CC3)n2)C1 (centres unmarked) [Example 25, isoquinoline, 1,2,3,4-tetrahydro-2-[[2-(3-methyl-1-piperidinyl)-4-(1-phenylcyclopropyl)-5-pyrimidinyl]carbonyl]-] | 0.945
CC1CCN(c2ncc(C(=O)N3CCc4ccccc4C3)c(C3(c4ccccc4)CC3)n2)CC1 [Example 26, isoquinoline, 1,2,3,4-tetrahydro-2-[[2-(4-methyl-1-piperidinyl)-4-(1-phenylcyclopropyl)-5-pyrimidinyl]carbonyl]-] | 0.546
CCN(C(=O)c1cnc(N2CCN(C)CC2)nc1C1(c2ccccc2)CC1)C1CCCCC1 [Example 27, 5-pyrimidinecarboxamide, N-cyclohexyl-N-ethyl-2-(4-methyl-1-piperazinyl)-4-(1-phenylcyclopropyl)-] | 0.47
CN(C)CCNc1ncc(C(=O)N(C)CCc2ccccc2)c(C2(c3ccccc3)CC2)n1 [Example 28, 5-pyrimidinecarboxamide, 2-[[2-(dimethylamino)ethyl]amino]-N-methyl-4-(1-phenylcyclopropyl)-N-(2-phenylethyl)-] | 0.301
CCN(Cc1ccccc1)C(=O)c1cnc(NC2CCC(C)CC2)nc1C1(c2ccccc2)CC1 (centres unmarked) [Example 29, 5-pyrimidinecarboxamide, N-ethyl-2-[(4-methylcyclohexyl)amino]-4-(1-phenylcyclopropyl)-N-(phenylmethyl)-] | 0.607
CCN(Cc1ccccc1)C(=O)c1cnc(N2CCCC(C)C2)nc1C1(c2ccccc2)CC1 (centres unmarked) [Example 30, 5-pyrimidinecarboxamide, N-ethyl-2-(3-methyl-1-piperidinyl)-4-(1-phenylcyclopropyl)-N-(phenylmethyl)-] | 0.634
CCN(Cc1ccccc1)C(=O)c1cnc(N2CCC(C)CC2)nc1C1(c2ccccc2)CC1 [Example 31, 5-pyrimidinecarboxamide, N-ethyl-2-(4-methyl-1-piperidinyl)-4-(1-phenylcyclopropyl)-N-(phenylmethyl)-] | 0.475
O=C(NCc1ccc2c(c1)OCO2)c1cnc(N2CCCC2)nc1C1(c2ccccc2)CC1 [Example 32, 5-pyrimidinecarboxamide, N-(1,3-benzodioxol-5-ylmethyl)-4-(1-phenylcyclopropyl)-2-(1-pyrrolidinyl)-] | 0.413
CC1CCC(Nc2ncc(C(=O)N[C@H](C)c3cccc4ccccc34)c(C3(c4ccccc4)CC3)n2)CC1 (stereo partly drawn) [Example 33, 5-pyrimidinecarboxamide, 2-[(4-methylcyclohexyl)amino]-N-[(1R)-1-(1-naphthalenyl)ethyl]-4-(1-phenylcyclopropyl)-] | 0.293
CC1CCCN(c2ncc(C(=O)N[C@H](C)c3cccc4ccccc34)c(C3(c4ccccc4)CC3)n2)C1 (stereo partly drawn) [Example 34, 5-pyrimidinecarboxamide, 2-(3-methyl-1-piperidinyl)-N-[(1R)-1-(1-naphthalenyl)ethyl]-4-(1-phenylcyclopropyl)-] | 0.107
CC1CCN(c2ncc(C(=O)N[C@H](C)c3cccc4ccccc34)c(C3(c4ccccc4)CC3)n2)CC1 [Example 35, 5-pyrimidinecarboxamide, 2-(4-methyl-1-piperidinyl)-N-[(1R)-1-(1-naphthalenyl)ethyl]-4-(1-phenylcyclopropyl)-] | 0.212

Same assay, conditions: hQ23 cells, thallium flux

EC50 [µM] | Compound
0.039 | 5-pyrimidinecarboxamide, 4-[1-(4-fluorophenyl)cyclopentyl]-N,N-bis(1-methylethyl)-2-(3-methyl-1-piperidinyl)- [Example 224]
